# From ChEMBL document CHEMBL5465560, “Selectivity Literature for EUbOPEN Chemogenomic Library” (2024)
# Key:
# [1] = molecular target: STE20/SPS1-related proline-alanine-rich protein kinase (Homo sapiens) (UniProt Q9UEW8); test: Selectivity interaction (KinomeScan (DiscoverX)) EUB0001049a STK39; conditions: at 1 µM
# [2] = molecular target: T1, Bone morphogenetic protein receptor type-2 (Homo sapiens) (UniProt Q13873); test: Selectivity interaction (KinomeScan (DiscoverX)) EUB0001049a BMPR2; conditions: at 1 µM
# T1 sequence (whole entry): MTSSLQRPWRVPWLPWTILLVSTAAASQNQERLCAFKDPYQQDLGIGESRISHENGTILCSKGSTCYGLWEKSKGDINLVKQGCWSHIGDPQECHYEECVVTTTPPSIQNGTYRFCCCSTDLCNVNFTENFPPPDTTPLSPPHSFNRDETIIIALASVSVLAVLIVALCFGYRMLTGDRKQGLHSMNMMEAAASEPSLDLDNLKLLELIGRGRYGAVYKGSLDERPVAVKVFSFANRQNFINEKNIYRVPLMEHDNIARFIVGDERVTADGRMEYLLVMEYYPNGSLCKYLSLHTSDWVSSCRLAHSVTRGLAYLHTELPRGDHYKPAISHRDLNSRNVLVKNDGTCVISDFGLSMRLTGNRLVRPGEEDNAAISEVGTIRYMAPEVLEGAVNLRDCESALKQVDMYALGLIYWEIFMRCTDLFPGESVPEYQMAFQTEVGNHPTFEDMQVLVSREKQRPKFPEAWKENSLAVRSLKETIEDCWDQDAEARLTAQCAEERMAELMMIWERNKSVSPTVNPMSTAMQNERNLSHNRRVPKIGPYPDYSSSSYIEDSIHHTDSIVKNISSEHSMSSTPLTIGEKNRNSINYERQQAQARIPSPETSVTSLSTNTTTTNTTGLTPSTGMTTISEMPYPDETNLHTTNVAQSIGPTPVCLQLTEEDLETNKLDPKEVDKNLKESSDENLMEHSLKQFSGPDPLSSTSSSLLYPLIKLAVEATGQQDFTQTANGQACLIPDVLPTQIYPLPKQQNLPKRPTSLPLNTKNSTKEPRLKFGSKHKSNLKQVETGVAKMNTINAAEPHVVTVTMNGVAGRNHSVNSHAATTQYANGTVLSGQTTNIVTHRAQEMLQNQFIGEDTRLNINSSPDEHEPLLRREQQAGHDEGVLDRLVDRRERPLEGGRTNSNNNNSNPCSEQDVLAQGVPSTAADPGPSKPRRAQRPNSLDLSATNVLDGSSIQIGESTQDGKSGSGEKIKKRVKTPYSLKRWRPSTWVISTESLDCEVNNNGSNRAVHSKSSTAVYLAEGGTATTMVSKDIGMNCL
# [3] = molecular target: Cyclin-dependent kinase 7 (Homo sapiens, UniProt P50613); test: Selectivity interaction (KinomeScan (DiscoverX)) EUB0001079a CDK7; conditions: at 1 µM
# Sequence of Cyclin-dependent kinase 7 (P50613 whole entry): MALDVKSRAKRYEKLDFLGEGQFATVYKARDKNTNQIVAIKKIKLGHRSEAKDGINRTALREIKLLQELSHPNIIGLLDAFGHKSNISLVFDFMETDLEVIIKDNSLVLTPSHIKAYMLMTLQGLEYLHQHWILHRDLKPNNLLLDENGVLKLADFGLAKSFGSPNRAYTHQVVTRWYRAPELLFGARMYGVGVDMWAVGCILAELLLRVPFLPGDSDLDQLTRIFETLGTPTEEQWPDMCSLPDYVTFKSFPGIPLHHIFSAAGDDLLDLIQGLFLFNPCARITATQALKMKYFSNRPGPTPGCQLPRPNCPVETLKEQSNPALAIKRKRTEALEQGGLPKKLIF
# [4] = molecular target: Mitogen-activated protein kinase kinase kinase kinase 1 (Homo sapiens) (UniProt Q92918); test: Selectivity interaction (Kinase panel (KiNativ target engagement assay in Jurkat cells)) EUB0001635a MAP4K1; assay type: cell-based; conditions: Selectivity number of off-targets 0.0, Selectivity number of targets 233.0, Source Knowledge https://www.sciencedirect.com/science/article/pii/S2451945619300674?via%3Dihub, at 1 µM
# Sequence of Mitogen-activated protein kinase kinase kinase kinase 1 (Homo sapiens) (Q92918 whole entry, looked up): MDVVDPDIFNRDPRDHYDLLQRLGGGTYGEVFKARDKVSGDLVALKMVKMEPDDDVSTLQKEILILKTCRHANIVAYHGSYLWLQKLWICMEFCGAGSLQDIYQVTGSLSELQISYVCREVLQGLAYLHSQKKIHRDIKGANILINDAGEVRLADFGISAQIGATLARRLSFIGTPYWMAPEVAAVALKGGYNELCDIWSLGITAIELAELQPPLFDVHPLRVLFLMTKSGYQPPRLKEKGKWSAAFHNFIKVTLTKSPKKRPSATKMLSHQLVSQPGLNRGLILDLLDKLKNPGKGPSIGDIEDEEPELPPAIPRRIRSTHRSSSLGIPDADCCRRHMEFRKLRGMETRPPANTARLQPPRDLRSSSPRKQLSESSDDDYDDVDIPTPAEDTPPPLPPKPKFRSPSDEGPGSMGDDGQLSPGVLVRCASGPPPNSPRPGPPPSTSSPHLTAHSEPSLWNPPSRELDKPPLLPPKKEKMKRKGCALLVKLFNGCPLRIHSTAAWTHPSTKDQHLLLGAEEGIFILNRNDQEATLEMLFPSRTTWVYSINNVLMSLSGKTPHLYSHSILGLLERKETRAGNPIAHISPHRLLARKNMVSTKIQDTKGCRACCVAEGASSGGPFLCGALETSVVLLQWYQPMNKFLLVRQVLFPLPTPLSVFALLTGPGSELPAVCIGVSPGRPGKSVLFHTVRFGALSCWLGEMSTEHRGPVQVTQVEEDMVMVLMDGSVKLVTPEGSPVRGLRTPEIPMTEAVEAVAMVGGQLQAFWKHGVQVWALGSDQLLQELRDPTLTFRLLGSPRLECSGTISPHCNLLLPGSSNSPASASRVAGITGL
# [5] = molecular target: Mitogen-activated protein kinase 14 (Homo sapiens, UniProt Q16539); test: Selectivity interaction (Kinase panel (Invitrogen)) EUB0000639a MAPK14; conditions: at 200 nM
# Sequence of Mitogen-activated protein kinase 14 (Q16539 whole entry): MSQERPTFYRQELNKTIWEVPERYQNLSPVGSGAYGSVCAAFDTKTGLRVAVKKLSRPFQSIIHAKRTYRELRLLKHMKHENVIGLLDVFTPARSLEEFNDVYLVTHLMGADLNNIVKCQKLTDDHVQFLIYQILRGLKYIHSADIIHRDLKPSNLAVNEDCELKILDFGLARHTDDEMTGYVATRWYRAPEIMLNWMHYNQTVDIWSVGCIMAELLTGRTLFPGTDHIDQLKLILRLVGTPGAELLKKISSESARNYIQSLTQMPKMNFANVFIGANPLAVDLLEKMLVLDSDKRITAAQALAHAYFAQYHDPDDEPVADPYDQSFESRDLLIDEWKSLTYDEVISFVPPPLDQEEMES
# [6] = molecular target: Leukocyte tyrosine kinase receptor (Homo sapiens, UniProt P29376); test: Selectivity interaction (Kinase panel (Invitrogen)) EUB0000639a LTK; conditions: at 200 nM
# Sequence of Leukocyte tyrosine kinase receptor (P29376 whole entry): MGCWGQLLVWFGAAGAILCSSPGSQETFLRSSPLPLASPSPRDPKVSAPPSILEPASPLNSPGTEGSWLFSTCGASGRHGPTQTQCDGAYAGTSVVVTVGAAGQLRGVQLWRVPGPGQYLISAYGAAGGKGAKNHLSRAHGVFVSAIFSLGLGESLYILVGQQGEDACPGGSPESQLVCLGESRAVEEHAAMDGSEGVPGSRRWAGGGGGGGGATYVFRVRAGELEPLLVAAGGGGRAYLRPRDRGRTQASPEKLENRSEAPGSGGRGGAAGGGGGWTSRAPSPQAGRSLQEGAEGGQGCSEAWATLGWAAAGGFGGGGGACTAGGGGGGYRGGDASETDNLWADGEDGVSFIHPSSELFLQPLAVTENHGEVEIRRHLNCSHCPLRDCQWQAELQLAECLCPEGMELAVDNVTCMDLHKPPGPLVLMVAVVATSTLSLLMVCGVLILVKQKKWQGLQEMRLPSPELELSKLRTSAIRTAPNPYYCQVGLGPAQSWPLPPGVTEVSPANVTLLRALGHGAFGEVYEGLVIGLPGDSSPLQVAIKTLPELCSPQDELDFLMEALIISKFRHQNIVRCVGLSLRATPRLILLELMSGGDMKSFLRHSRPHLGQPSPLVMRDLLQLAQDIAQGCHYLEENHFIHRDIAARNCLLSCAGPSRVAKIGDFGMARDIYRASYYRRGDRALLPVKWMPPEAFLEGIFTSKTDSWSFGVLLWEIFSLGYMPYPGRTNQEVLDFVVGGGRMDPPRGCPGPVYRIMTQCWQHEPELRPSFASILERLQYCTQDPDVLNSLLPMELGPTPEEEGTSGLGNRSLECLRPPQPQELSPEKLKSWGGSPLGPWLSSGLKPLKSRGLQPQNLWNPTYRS
# [7] = molecular target: T2, Serine/threonine-protein kinase 3 (Homo sapiens) (UniProt Q13188); test: Selectivity interaction (KinomeScan (DiscoverX)) EUB0000618a STK3; conditions: at 10 µM
# T2 sequence (whole entry): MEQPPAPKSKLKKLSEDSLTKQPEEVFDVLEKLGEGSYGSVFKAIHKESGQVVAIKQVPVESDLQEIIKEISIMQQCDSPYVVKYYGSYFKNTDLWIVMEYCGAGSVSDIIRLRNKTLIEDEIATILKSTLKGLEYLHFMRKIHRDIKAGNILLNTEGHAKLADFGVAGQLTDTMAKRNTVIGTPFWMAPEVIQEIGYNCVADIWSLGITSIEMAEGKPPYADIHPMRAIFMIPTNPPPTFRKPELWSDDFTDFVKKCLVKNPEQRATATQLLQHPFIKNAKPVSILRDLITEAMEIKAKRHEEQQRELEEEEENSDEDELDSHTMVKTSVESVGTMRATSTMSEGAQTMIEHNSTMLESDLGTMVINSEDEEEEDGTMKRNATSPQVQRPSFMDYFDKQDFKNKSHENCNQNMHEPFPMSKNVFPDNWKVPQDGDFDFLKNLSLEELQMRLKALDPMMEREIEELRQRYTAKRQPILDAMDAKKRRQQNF
# [8] = molecular target: Mitogen-activated protein kinase 6 (Homo sapiens) (UniProt Q16659); test: Selectivity interaction (KinomeScan (DiscoverX)) EUB0000618a MAPK6; conditions: at 10 µM
# Sequence of Mitogen-activated protein kinase 6 (Homo sapiens) (Q16659 whole entry): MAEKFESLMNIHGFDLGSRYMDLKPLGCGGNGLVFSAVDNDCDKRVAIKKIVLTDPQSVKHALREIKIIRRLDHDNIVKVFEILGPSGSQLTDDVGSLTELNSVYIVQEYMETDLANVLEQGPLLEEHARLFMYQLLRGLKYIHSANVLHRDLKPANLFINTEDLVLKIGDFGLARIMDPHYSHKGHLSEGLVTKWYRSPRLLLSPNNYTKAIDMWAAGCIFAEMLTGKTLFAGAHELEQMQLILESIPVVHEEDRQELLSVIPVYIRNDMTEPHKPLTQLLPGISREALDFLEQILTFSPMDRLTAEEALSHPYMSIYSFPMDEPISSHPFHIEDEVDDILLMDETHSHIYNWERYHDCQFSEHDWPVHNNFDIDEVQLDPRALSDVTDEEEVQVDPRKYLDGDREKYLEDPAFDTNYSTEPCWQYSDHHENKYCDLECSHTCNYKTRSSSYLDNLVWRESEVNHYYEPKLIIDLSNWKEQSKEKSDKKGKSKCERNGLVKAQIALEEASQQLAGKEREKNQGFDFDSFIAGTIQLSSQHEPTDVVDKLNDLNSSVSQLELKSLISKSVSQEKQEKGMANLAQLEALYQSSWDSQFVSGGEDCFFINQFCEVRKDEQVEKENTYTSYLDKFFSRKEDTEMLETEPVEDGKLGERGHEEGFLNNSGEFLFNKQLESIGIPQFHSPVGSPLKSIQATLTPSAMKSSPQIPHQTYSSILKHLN
# [9] = molecular target: Mitogen-activated protein kinase 1 (Homo sapiens, UniProt P28482)
# Sequence of Mitogen-activated protein kinase 1 (P28482 whole entry): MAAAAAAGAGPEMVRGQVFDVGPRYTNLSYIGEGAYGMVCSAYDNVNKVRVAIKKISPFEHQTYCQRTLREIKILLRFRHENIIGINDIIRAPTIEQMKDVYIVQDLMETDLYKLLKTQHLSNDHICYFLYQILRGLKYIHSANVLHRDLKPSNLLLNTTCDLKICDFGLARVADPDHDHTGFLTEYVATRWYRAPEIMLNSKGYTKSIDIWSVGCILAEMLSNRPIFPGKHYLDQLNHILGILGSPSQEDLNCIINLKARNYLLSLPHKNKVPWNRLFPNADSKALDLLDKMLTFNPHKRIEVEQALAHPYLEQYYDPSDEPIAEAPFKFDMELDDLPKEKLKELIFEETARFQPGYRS
# [10] = molecular target: CDK9/cyclin T1 (Homo sapiens) (UniProt O60563+P50750); test: Selectivity interaction (Upstate Kinase Profiler service (Millipore)) EUB0000056c CDK9; assay type: protein-complex assay; conditions: at 1 µM
# [11] = molecular target: T3, Serine/threonine-protein kinase RIO1 (Homo sapiens) (UniProt Q9BRS2); test: Selectivity interaction (KinomeScan (DiscoverX)) EUB0000695a RIOK1; conditions: at 100 nM
# T3 sequence (whole entry): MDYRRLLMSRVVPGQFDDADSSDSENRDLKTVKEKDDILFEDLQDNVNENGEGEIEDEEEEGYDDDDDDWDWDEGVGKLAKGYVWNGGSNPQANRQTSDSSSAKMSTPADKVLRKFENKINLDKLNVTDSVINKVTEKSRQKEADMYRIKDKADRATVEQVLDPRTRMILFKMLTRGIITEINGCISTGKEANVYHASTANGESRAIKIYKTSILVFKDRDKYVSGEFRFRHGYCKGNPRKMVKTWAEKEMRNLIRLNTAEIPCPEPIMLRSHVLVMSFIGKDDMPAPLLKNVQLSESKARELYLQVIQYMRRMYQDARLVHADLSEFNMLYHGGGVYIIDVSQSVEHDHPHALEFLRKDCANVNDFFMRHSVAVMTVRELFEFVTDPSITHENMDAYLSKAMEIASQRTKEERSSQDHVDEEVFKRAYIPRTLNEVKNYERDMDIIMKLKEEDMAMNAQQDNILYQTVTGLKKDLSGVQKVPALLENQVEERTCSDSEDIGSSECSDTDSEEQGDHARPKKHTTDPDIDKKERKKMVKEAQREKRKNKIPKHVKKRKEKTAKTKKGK
# [12] = molecular target: Serine/threonine-protein kinase SIK2 (Homo sapiens) (UniProt Q9H0K1); test: Selectivity interaction (Kinase panel (Carna Biosciences)) EUB0001542aTs SIK2; conditions: at 1 µM
# Sequence of Serine/threonine-protein kinase SIK2 (Homo sapiens) (Q9H0K1 whole entry, looked up): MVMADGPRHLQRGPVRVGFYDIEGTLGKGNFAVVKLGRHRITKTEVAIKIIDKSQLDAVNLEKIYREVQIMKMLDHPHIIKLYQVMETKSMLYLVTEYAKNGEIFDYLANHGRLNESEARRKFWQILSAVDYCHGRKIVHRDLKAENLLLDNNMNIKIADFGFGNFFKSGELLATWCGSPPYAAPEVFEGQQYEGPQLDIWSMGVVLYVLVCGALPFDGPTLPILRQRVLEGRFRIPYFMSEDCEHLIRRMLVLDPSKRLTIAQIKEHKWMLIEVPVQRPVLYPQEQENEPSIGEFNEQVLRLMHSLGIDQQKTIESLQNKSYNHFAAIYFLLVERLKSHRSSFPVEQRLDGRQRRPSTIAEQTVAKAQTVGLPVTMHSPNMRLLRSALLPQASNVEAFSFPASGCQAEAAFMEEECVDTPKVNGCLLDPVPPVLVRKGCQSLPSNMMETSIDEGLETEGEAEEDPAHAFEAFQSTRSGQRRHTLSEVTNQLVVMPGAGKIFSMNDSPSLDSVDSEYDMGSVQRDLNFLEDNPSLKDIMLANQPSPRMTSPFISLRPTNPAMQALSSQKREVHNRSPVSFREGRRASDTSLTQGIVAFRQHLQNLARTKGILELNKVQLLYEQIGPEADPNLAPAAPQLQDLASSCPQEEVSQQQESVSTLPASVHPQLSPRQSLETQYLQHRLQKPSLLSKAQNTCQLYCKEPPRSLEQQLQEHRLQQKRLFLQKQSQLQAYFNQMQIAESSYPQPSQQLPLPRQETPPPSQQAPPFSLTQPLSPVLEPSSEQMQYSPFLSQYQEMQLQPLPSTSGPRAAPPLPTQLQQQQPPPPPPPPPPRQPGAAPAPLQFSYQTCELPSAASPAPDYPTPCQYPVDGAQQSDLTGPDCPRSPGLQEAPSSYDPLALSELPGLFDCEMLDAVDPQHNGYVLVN
# [13] = molecular target: Activin receptor type-1-like (Homo sapiens) (UniProt P37023); test: Selectivity interaction (ProQinase) EUB0000171b ACVRL1
# Sequence of Activin receptor type-1-like (Homo sapiens) (P37023 whole entry): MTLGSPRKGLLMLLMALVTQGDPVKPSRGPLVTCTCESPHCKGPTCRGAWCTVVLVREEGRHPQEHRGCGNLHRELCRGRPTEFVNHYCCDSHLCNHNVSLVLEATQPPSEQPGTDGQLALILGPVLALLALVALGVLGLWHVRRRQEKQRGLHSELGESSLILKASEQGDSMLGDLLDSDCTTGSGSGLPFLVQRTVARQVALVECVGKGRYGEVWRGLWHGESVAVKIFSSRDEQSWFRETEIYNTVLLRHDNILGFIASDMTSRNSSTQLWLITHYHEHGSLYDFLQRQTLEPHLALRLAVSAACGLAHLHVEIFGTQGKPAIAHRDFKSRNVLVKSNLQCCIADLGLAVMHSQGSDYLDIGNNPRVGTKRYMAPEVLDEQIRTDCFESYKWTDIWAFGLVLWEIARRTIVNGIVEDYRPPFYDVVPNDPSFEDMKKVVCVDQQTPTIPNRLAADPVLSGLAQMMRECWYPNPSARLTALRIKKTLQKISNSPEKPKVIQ
structure (smiles),measurement,setting,value
COc1cc(Nc2nc(C)cc(-c3cnn4nc(OC)ccc34)n2)cc(C(F)(F)F)c1,% of control,[1],64%
same,% of control,[2],100%
Nc1cnc(N2CCc3cc(S(=O)(=O)Nc4c(F)cc(Cl)cc4F)cc(N4CCCC4=O)c32)nc1 [TP-020n],% of control,[3],100%
C=CC(=O)Nc1ccc(C(=O)Nc2[nH]nc3c2CN(C(=O)N[C@H](CN(C)C)c2ccccc2)C3(C)C)cc1,% of engagement,[4],4.1%
CC[C@@H]1[C@H](F)C(=O)N[C@@H]1COc1nccc2cc(C(N)=O)c(OC)cc12 [ZIMLOVISERTIB],% of inhibition,[5],18.3%
same,% of inhibition,[6],5.58%
O[C@H]1CC[C@H](Nc2ncc3nc(Nc4c(F)cc(F)cc4F)n([C@H]4CCOC4)c3n2)CC1,% of control,[7],73%
same,% of control,[8],24%
CCc1cccc(CC)c1NC(=O)c1nn(C)c2c1CCc1cnc(Nc3ccc(C(=O)NC4CCN(C)CC4)cc3OC(F)(F)F)nc1-2,IC50,[9],> 10 µM
Cc1ccc(-c2ccc3c(ccc4sc5c(c43)NC[C@@H](C)NC5=O)n2)cn1,% of inhibition,[10],41%
Cc1cc(F)c(C(=O)Nc2cccc(-c3nncn3C(C)C)n2)cc1-n1cnc(C2CC2)c1,% of control,[11],100%
Cn1cc(Nc2nccc(N3CC4CCC(C3)N4C(=O)[C@@H]3CC3(F)F)n2)cn1,% of inhibition,[12],91%
C=CC(=O)Nc1cccc(C(=O)Nc2ccc(Nc3cc(-c4[nH]c(SC)nc4C)ccn3)cc2)c1,% of control,[13]; at 1 µM,74%
same,% of control,[13]; at 5 µM,52%
